{"source": "patent US9322034B2", "about": "“Compositions and methods for detecting and modulating cell death by a translation regulated gene expression system” (Wayne State University, priority 2007, dated 2016)", "key": {"[1]": {"system": "HEK293 or HT1080 cells transduced with rAAV TRplp-EYFP / TRdm-EYFP", "experiment": "TR-EYFP translation after rAAV transduction", "format": "cell-based, human", "details": "25 μM, 24 hr", "method": "This example is to show delivery of the TRplp-EYFP and TRdm-EYFP cassettes to HEK293 and HT1080 cells using rAAV transduction. HEK293 or HT1080 cells are plated on flame sterilized glass slides and grown until 60-70% confluent (1-2 days), washed with L-DMEM (DMEM containing 2% fetal bovine serum), and infected with rAAV for 2 hr. The medium is replaced with DMEM, 10% FBS and the cells are incubated for 24 hours. Infected cells are treated with DMEM, 10% FBS supplemented with toxic levels of MG132 (25 μM) for 24 hr prior to direct microscopic or Western analysis as described above."}, "HEK293 cells": {"system": "HEK293 cells", "experiment": "Trypan blue staining of HEK293 cells treated with toxic agents", "format": "cell-based, human", "details": "50 micromolar, within 24 hr"}, "[2]": {"system": "HEK293 cell pools expressing the fLUC-TRplp-EYFP, fLUC-TRdm-EYFP, pcuLf-TRplp-EYFP or pcuLf-TRdm-EYFP expression cassettes", "experiment": "Cytotoxicity assay by Western blot, bicistronic TR cassettes", "format": "cell-based, human", "details": "toxic doses"}, "[3]": {"experiment": "Pro-drug induced cell death, Trypan blue cell viability assay, control cells", "format": "cell-based", "details": "human, HEK293 or HEK CMV-EYFP cells (control cells); any concentration (10 nM to 10 μM), 3 or 4 days; read-out: cells remaining Trypan blue viable", "method": "(§1) In this example, HEK293, HEK CMV-EYFP, and HEK TRplp-TKsr39 cells are treated with various amounts of the pro-drug ganciclovir and tested for cell death after 4 days incubation using the Trypan blue staining assay. Cells are plated into 6-well trays, grown to 70-80% confluence, and treated with DMEM, 10% FBS supplemented with ganciclovir (0, 10 nM, 100 nM, 1 μM, 5 μM or 10 μM) for 4 days. Viable cell counts are performed at 3 days and 4 days post-incubation (FIG. 13)."}, "TKsr39 protein": {"biological_target": "TKsr39 protein (Human herpesvirus 1, UniProt Q9QNF7, A168F/F161L/I160F/L159I/L169M)", "sequence (Q9QNF7 whole entry A168F/F161L/I160F/L159I/L169M, looked up)": "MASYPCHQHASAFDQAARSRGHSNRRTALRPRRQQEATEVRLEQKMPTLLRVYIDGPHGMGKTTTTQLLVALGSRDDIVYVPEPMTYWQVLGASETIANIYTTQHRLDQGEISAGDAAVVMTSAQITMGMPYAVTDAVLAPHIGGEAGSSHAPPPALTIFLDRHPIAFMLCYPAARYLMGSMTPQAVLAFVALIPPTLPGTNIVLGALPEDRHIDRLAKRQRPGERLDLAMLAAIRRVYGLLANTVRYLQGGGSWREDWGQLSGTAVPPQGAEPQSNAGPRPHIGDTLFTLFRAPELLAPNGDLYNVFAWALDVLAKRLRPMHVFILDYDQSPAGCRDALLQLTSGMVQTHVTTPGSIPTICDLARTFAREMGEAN", "details": "TKsr39 versus wildtype TK protein; cited from earlier work"}, "[4]": {"system": "HEK293 TRplp-TKsr39 cells", "experiment": "Pro-drug induced cell death, Trypan blue cell viability assay", "format": "cell-based, human", "method": "as §1"}}, "note": "Where a SMILES comes first, the peptide text is derived from it. The star is where a group is joined. Cbz = O=C(OCc1ccccc1)*", "data": [{"smiles": "CC(C)C[C@@H](C=O)NC(=O)[C@H](CC(C)C)NC(=O)[C@H](CC(C)C)NC(=O)OCc1ccccc1", "note": "[MG132] (Cbz-Leu-Leu-Leu-aldehyde)", "values": [{"measurement": "translation of EYFP in rAAV transduced cells compared to uninfected control cells", "setting": "[1]", "value": "exhibit selective translation of the fluorescent EYFP protein"}, {"measurement": "cell death in HEK293 cells as determined by Trypan blue staining", "setting": "HEK293 cells", "value": "complete cell death"}, {"measurement": "EYFP translation in cell pools expressing the bicistronic TR cassettes (Western blot, FIG. 4)", "setting": "[2]", "value": "induce EYFP translation"}]}, {"smiles": "Nc1nc(O)c2ncn(COC(CO)CO)c2n1", "note": "[ganciclovir]", "values": [{"measurement": "viability", "setting": "[3]", "value": "98 to 100", "unit": "%"}, {"measurement": "prodrug binding of TKsr39 protein, higher than the wildtype protein", "setting": "TKsr39 protein", "value": 83, "unit": "fold"}, {"measurement": "cell viability compared to untreated cells", "setting": "[4]; 10 nM, 3 days", "value": "does not exhibit any decrease in cell viability"}, {"measurement": "cell viability compared to untreated cells", "setting": "[4]; 100 nM, 3 days", "value": "slight decrease"}, {"measurement": "viability at 10 µM", "setting": "[4]; Homo sapiens, HEK293, 72 h, 3 days", "value": 86, "unit": "%"}, {"measurement": "viability at 0.01 µM", "setting": "[4]; Homo sapiens, HEK293, 96 h, 10 nM, 4 days", "value": 99.7, "unit": "%"}, {"measurement": "viability at 10 µM", "setting": "[4]; Homo sapiens, HEK293, 96 h, 4 days", "value": 33.7, "unit": "%"}]}]}
